Experimental findings from US7012094B1, “Substituted furans and furanones for the treatment of inflammation” (G.D. Searle, LLC, priority 1994, dated 2006) are described below.

Marks after values point to notes of the source that are not given here.

Test [1] deals with carrageenan-induced hyperalgesic foot withdrawal. The experiment in a line: Rat carrageenan-induced analgesia test. The test is classed as in vivo. To be noted: oral, 3 mpk (footnote *); 3 h after carrageenan. On the procedure:
The analgesia test using rat carrageenan was performed with materials, reagents and procedures essentially as described by Hargreaves, et al., (Pain, 32, 77 (1988)). Male Sprague-Dawley rats were treated as previously described for the Carrageenan Foot Pad Edema test. Three hours after the injection of the carrageenan, the rats were placed in a special plexiglass container with a transparent floor having a high intensity lamp as a radiant heat source, positionable under the floor. After an initial twenty minute period, thermal stimulation was begun on either the injected foot or on the contralateral uninjected foot. A photoelectric cell turned off the lamp and timer when light was interrupted by paw withdrawal. The time until the rat withdraws its foot was then measured. The withdrawal latency in seconds was determined for the control and drug-treated groups, and percent inhibition of the hyperalgesic foot withdrawal determined.

A further test concerns the target T1, Murine COX II (Mus musculus, UniProt Q05769).
T1 construct: coding region of either human or murine COX-I or human or murine COX-II was cloned; made in house; host or cells: SF9 insect cells (baculovirus, pVL1393)
T1 sequence (Q05769 18-604): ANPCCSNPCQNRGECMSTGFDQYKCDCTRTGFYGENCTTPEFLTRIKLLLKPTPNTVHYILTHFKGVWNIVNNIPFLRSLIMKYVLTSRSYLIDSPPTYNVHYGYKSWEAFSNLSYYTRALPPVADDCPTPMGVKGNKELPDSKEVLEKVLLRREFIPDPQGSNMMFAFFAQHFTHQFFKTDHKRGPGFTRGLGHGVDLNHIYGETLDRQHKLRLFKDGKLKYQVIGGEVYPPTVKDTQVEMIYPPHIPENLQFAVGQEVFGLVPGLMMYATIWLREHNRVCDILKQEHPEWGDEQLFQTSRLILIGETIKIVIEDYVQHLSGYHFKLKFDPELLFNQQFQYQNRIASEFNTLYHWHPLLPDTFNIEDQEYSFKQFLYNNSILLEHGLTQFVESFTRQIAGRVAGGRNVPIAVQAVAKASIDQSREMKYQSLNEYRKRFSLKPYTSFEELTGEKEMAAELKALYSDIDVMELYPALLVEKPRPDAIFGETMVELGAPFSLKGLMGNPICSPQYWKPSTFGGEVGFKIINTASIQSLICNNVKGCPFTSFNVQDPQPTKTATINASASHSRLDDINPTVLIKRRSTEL
The test can be described thus: COX II activity in vitro (PGE2 ELISA, recombinant enzyme). The test is classed as biochemical. To be noted: arachidonic acid 10 μM, read-out: Murine COX II ID50. On the procedure:
A 2.0 kb fragment containing the coding region of either human or murine COX-I or human or murine COX-II was cloned into a BamH1 site of the baculovirus transfer vector pVL1393 to generate the baculovirus transfer vector. Recombinant baculoviruses were isolated by transfecting 4 μg of baculovirus transfer vector DNA into SF9 cells (2×10e8) along with 200 ng of linearized baculovirus plasmid DNA by the calcium phosphate method. […] The homogenate was centrifuged at 10,000×G for 30 minutes, and the resultant supernatant was stored at −80° C. before being assayed for COX activity.
COX activity was assayed as PGE2 formed/μg protein/time using an ELISA to detect the prostaglandin released. CHAPS-solubilized insect cell membranes containing the appropriate COX enzyme were incubated in a potassium phosphate buffer (50 mM, pH 8.0) containing epinephrine, phenol, and heme with the addition of arachidonic acid (10 μM). […] The PGE2 formed was measured by standard ELISA technology (Cayman Chemical).

`CS(=O)(=O)c1ccc(-c2csc(Br)c2-c2ccc(F)cc2)cc1` [Example 2, 4-(4-Methylsulfonylphenyl)-3-(4-fluorophenyl)-2-bromothiophene]: the “ANALGESIA % Inhibition @ 3 mpk” value in test [1] is listed as 0* %.

Consider `Cc1cc(F)ccc1-c1cscc1-c1ccc(S(C)(=O)=O)cc1` [Example 15, 3-(4-Methylsulfonylphenyl)-4-(2-methyl-4-fluorophenyl) thiophene], for which, at Murine COX II, the IC50 is less than 100 nM.
